The text below walks through data of article PMC10284550, “Accelerating drug target inhibitor discovery with a deep generative foundation model” (Science Advances, 2023).

Structures are written as SMILES. Like-named read-outs stand apart in the source and are kept apart here.

Assay [1] concerns the target T1, SARS-CoV-2 M^pro (Severe acute respiratory syndrome coronavirus 2, UniProt P0DTD1). In words: biochemical.
In another assay the test system is SARS-CoV-2. To be noted: cited from earlier work.
Assay [2] deals with SARS-CoV-2 Delta live virus. The assay can be described thus: microbe, parasite or virus in culture. The class given is cell-based.
For assay [3], the system named is SARS-CoV-2 pseudotyped lentivirus (Omicron). In words: microbe, parasite or virus in culture. Format: cell-based. The settings on record: read-out: IC50 pseudoviral neutralization, Omicron.
The subject of assay [4] is SARS-CoV-2 Omicron live virus. The assay can be described thus: microbe, parasite or virus in culture. Format: cell-based. The settings on record: Severe acute respiratory syndrome coronavirus 2, read-out: IC50 live virus neutralization, Omicron.
In assay [5] the test system is SARS-CoV-2 Alpha live virus. In words: microbe, parasite or virus in culture. The class given is cell-based.
Assay [6] concerns SARS-CoV-2 pseudotyped lentivirus (Gamma). In words: microbe, parasite or virus in culture. To be noted: read-out: IC50 pseudoviral neutralization, Gamma. Format: cell-based.
In assay [7] the test system is SARS-CoV-2 pseudotyped lentivirus (Victoria). The assay can be described thus: microbe, parasite or virus in culture. The class given is cell-based. To be noted: read-out: IC50 pseudoviral neutralization, Victoria.
Assay [8] deals with SARS-CoV-2 pseudotyped lentivirus. In words: microbe, parasite or virus in culture. The class given is cell-based.
The subject of assay [9] is SARS-CoV-2 pseudotyped lentivirus (Beta). In words: microbe, parasite or virus in culture. Format: cell-based. The settings on record: read-out: IC50 pseudoviral neutralization, Beta.
For assay [10], the system named is SARS-CoV-2 Victoria live virus (SARS-CoV-2/human/AUS/VIC01/2020). The assay can be described thus: microbe, parasite or virus in culture. The class given is cell-based.
For assay [11], the system named is SARS-CoV-2 pseudotyped lentivirus (Delta). In words: microbe, parasite or virus in culture. To be noted: read-out: IC50 pseudoviral neutralization, Delta. The class given is cell-based.
For assay [12], the system named is SARS-CoV-2 Gamma live virus. In words: microbe, parasite or virus in culture. The class given is cell-based. To be noted: Severe acute respiratory syndrome coronavirus 2, read-out: IC50 live virus neutralization, Gamma.
Assay [13] concerns SARS-CoV-2 pseudotyped lentivirus (Alpha). In words: microbe, parasite or virus in culture. Format: cell-based. To be noted: read-out: IC50 pseudoviral neutralization, Alpha.
Assay [14] deals with T1, SARS-CoV-2 M^pro. The class given is binding.
Where [15] appears, read: Severe acute respiratory syndrome coronavirus 2, HEK293T/17, read-out: IC50, neutralization of SARS-CoV-2 pseudotyped lentivirus.
[16] abbreviates: Severe acute respiratory syndrome coronavirus 2, read-out: IC50, neutralization of Victoria live virus.

As to `CN(c1nc(N2CCOCC2)nc(N2CCc3ccccc32)n1)C1CCC(NS(N)(=O)=O)CC1` (stereo not shown) [GXA112], at SARS-CoV-2 M^pro [1], the IC50 is 34.2 µM.

For the compound `CS(=O)(=O)c1cccc(C[C@H](NC(=O)c2c(Cl)cc3c(c2Cl)CCN(C(=O)c2ccc4ccoc4c2)C3)C(=O)O)c1` [Lifitegrast], the “antiviral potency against SARS-CoV-2 in vitro” value in the assay on SARS-CoV-2 is “dose-dependent antiviral potency”.

With `C#CCN1CCC(CCNc2ccnc3ccccc23)CC1` [GEN727], the IC50 in assay [2] (Severe acute respiratory syndrome coronavirus 2, read-out: IC50 live virus neutralization, Delta) was 39.1 ± 7.4 µM; in assay [2] (read-out: IC50 live virus neutralization, Delta), under 50 µM; in assay [3], 2.7 ± 0.5 µM; in assay [4] it was 130 ± 1.9 µM; in [5] (Severe acute respiratory syndrome coronavirus 2, read-out: IC50 live virus neutralization, Alpha), 33.8 ± 1.1 µM; in [5] (read-out: IC50 live virus neutralization, Alpha), under 50 µM. Also, the IC50 in [6] was 0.7 ± 0.3 µM; in [7] it was 2.8 ± 1.6 µM; in assay [8] (setting [15]), 2.8 µM; in assay [8] (read-out: IC50, neutralization of spike-containing pseudovirus across all VOCs) it was 0.7 to 2.8 µM; in assay [9] it was 1.1 ± 0.8 µM; in assay [10] (setting [16]), 34.8 ± 2 µM. Besides, the IC50 in assay [10] (Severe acute respiratory syndrome coronavirus 2, read-out: IC50 live virus neutralization, Victoria) was 31.5 ± 2.6 µM; in assay [10] (read-out: IC50 live virus neutralization, Victoria), under 50 µM; in assay [11], 2.2 ± 0.1 µM; in assay [12], 55.4 ± 8.9 µM; in assay [13], 2.4 ± 0.4 µM.

Turning to `OC1CCN(c2nc(Nc3ccc4c(c3)CCC4)nc(N3CCC(F)(F)CC3)n2)CC1` [GXA70], at SARS-CoV-2 M^pro [1], the IC50 is 43 µM.

In the case of `CN(Cc1ccc(Cl)c(Cl)c1)c1ccc(S(N)(=O)=O)cn1` [Z68337194], the “Binding to M^pro seen in crystal structure” value at SARS-CoV-2 M^pro [14] is reported as “bound in the active site pocket”. The IC50 at SARS-CoV-2 M^pro [1] was found to be 35.5 µM.

Regarding `CS(=O)(=O)c1ccccc1Oc1ccc(-c2ccc(S(N)(=O)=O)cc2)cc1` [GEN725], the IC50 is 18.7 µM in [8] (setting [15]) and over 50 µM in assay [10] (setting [16]).

Regarding `NC(=O)c1ccc(N)cc1OC1CCN(CC(F)(F)F)CC1` [GEN626], the IC50 in assay [8] (setting [15]) and in assay [10] (setting [16]) was over 50 µM each time.

In the case of `Cn1nnnc1C1(c2cccc(Cl)c2)CCC1` [GEN777], the IC50 in assay [8] (setting [15]) and in assay [10] (setting [16]) was over 50 µM each time.
